From patent US20080139558A1, “QUINOLONES USEFUL AS INDUCIBLE NITRIC OXIDE SYNTHASE INHIBITORS” (KALYPSYS, INC., priority 2006, published 2008)
pEC50: −log10 of the molar value.

target: T1, human iNOS (Homo sapiens, UniProt P35228); experiment: DAN assay of nitric oxide production (hiNOS); type: cell-based; details: enzyme expressed in HEK293 cells transiently transfected with human iNOS
T1 construct: expressed in transfected cells; host or cells: HEK293
How it was run: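 Human iNOS transiently expressed in HEK293 cells; NO production quantified as nitrite via 2,3-diaminonaphthalene reaction forming fluorescent naphthotriazole.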

T1 sequence (P35228 whole entry): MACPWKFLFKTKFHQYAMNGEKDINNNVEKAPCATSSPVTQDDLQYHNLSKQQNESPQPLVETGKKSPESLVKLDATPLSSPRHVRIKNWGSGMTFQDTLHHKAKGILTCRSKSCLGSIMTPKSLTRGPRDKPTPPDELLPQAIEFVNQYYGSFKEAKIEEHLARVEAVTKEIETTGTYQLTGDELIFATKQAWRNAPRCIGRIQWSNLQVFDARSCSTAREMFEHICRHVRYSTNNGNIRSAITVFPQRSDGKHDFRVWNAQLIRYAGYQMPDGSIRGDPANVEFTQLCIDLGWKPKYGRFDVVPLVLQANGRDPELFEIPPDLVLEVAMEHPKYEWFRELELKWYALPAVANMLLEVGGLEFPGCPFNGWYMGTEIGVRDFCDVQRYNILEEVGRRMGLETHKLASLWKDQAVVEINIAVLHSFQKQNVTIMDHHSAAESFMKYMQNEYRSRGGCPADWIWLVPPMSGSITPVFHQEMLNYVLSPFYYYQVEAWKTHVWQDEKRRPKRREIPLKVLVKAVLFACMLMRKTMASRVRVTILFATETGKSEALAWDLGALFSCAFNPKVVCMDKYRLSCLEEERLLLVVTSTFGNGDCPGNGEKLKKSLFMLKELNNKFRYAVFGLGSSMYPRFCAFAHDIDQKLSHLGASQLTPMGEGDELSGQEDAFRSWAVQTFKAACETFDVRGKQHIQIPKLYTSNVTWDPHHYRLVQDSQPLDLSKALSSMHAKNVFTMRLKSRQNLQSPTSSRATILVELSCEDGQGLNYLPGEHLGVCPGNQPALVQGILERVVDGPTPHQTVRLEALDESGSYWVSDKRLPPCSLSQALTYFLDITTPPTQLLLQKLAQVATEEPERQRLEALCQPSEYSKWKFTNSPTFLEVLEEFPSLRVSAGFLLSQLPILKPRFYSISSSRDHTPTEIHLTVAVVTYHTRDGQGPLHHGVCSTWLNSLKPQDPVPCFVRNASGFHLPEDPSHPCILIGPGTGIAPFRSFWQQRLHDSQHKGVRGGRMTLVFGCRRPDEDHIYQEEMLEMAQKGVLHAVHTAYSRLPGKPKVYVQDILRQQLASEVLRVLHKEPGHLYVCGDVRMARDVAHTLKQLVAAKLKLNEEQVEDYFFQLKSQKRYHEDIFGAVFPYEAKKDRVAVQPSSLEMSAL

Q: Cc1ncsc1C(=O)N(Cc1cc(=O)n(C)c2c(F)cccc12)c1cccc(Cl)c1 [Example 117, N-(3-Chlorophenyl)-N-((8-fluoro-1-methyl-2-oxo-1,2-dihydroquinolin-4-yl)methyl)-4-methylthiazole-5-carboxamide] was tested. Which pEC50 did it give?
A: < 5.30

Q: With O=c1cc(CN(CCc2ccco2)c2ccccc2)c2ccccc2[nH]1 [Example 23, 4-(((2-(Furan-2-yl)ethyl)(phenyl)amino)methyl)quinolin-2(1H)-one] as the compound, how does the pEC50 read?
A: ≥ 5.30

Q: With O=c1cc(Cn2c(-c3ccncc3Cl)nc3ccccc32)c2ccc(F)c(F)c2[nH]1 [Example 248, 4-((2-(3-Chloropyridin-4-yl)-1H-benzo[d]imidazol-1-yl)methyl)-7,8-difluoroquinolin-2(1H)-one] as the compound, how does the pEC50 read?
A: ≥ 5.30

Q: With COc1cccc(C(=O)N(Cc2cc(=O)[nH]c3c(F)cccc23)c2cccc(Cl)c2)c1 [Example 61, N-(3-Chlorophenyl)-N-((8-fluoro-2-oxo-1,2-dihydroquinolin-4-yl)methyl)-3-methoxybenzamide] as the compound, how does the pEC50 read?
A: < 5.30

Q: O=c1cc(Cn2c(-n3ccnc3)nc3ccccc32)c2ccc(F)c(F)c2[nH]1 [Example 218, 4-((2-(1H-Imidazol-1-yl)-1H-benzo[d]imidazol-1-yl)methyl)-7,8-difluoroquinolin-2(1H)-one] was tested. Which pEC50 did it give?
A: ≥ 5.30

Q: How did the pEC50 turn out when Cc1oncc1C(=O)N(Cc1cc(=O)[nH]c2ccccc12)c1ccccc1 [Example 31, 5-Methyl-N-((2-oxo-1,2-dihydroquinolin-4-yl)methyl)-N-phenylisoxazole-4-carboxamide] was run?
A: < 5.30

Q: With CC(Cc1nc2ccccc2n1Cc1cc(=O)[nH]c2c(F)c(F)ccc12)C(F)(F)F (racemic) [Example 222, 7,8-Difluoro-4-((2-(3,3,3-trifluoro-2-methylpropyl)-1H-benzo[d]imidazol-1-yl)methyl)quinolin-2(1H)-one] as the compound, how does the pEC50 read?
A: ≥ 5.30

Q: With Cc1ncsc1CN(Cc1cc(=O)[nH]c2c(F)cccc12)c1cccc(Cl)c1 [Example 45, 4-(((3-Chlorophenyl)((4-methylthiazol-5-yl)methyl)amino)methyl)-8-fluoroquinolin-2(1H)-one] as the compound, how does the pEC50 read?
A: ≥ 5.30

Q: With Cc1ncsc1C(=O)N(Cc1cc(=O)[nH]c2c(F)c(F)ccc12)c1cccc(Cl)c1C [Example 184, N-(3-Chloro-2-methylphenyl)-N-((7,8-difluoro-2-oxo-1,2-dihydroquinolin-4-yl)methyl)-4-methylthiazole-5-carboxamide] as the compound, how does the pEC50 read?
A: ≥ 5.30

Q: How did the pEC50 turn out when Cn1nccc1-c1nc2ccccc2n1Cc1cc(=O)[nH]c2c(F)c(F)ccc12 [Example 233, 7,8-Difluoro-4-((2-(1-methyl-1H-pyrazol-5-yl)-1H-benzo[d]imidazol-1-yl)methyl)quinolin-2(1H)-one] was run?
A: ≥ 5.30

Q: How did the pEC50 turn out when Cc1nc(N(C)C)sc1C(=O)N(Cc1cc(=O)[nH]c2c(F)cccc12)c1ccc(F)c(Cl)c1 [Example 98, N-(3-Chloro-4-fluorophenyl)-2-(dimethylamino)-N-((8-fluoro-2-oxo-1,2-dihydroquinolin-4-yl)methyl)-4-methylthiazole-5-carboxamide] was run?
A: ≥ 5.30

Q: How did the pEC50 turn out when Cc1ncsc1-c1nc2ccccc2n1Cc1cc(=O)[nH]c2c(F)c(F)ccc12 [Example 119, 7,8-Difluoro-4-((2-(4-methylthiazol-5-yl)-1H-benzo[d]imidazol-1-yl)methyl)quinolin-2(1H)-one] was run?
A: ≥ 5.30

Q: Cc1ncsc1C(=O)N(Cc1cc(=O)[nH]c2c(F)c(F)ccc12)C1CC1 [Example 86, N-Cyclopropyl-N-((7,8-fluoro-2-oxo-1,2-dihydroquinolin-4-yl)methyl)-4-methylthiazole-5-carboxamide] was tested. Which pEC50 did it give?
A: < 5.30

Q: With O=C(c1ccc2ncccc2c1)N(Cc1cc(=O)[nH]c2c(F)cccc12)c1cccc(Cl)c1 [Example 84, N-(3-Chlorophenyl)-N-((8-fluoro-2-oxo-1,2-dihydroquinolin-4-yl)methyl)quinoline-6-carboxamide] as the compound, how does the pEC50 read?
A: < 5.30

Q: Cn1ccnc1C(=O)N(Cc1cc(=O)[nH]c2c(F)cccc12)c1cccc(Cl)c1 [Example 47, N-(3-Chlorophenyl)-N-((8-fluoro-2-oxo-1,2-dihydroquinolin-4-yl)methyl)-1-methyl-1H-imidazole-2-carboxamide] was tested. Which pEC50 did it give?
A: < 5.30

Q: Cc1ccc(N(Cc2cc(=O)[nH]c3ccccc23)C(=O)c2ccco2)cc1 [Example 11, N-(4-Methylphenyl)-N-[(2-oxo-1,2-dihydroquinolin-4-yl)methyl]-2-furamide] was tested. Which pEC50 did it give?
A: ≥ 5.30

Q: With CN(C)c1ccccc1C(=O)N(Cc1cc(=O)[nH]c2c(F)cccc12)c1cccc(Cl)c1 [Example 74, N-(3-Chlorophenyl)-2-(dimethylamino)-N-((8-fluoro-2-oxo-1,2-dihydroquinolin-4-yl)methyl)benzamide] as the compound, how does the pEC50 read?
A: < 5.30

Q: With CCC(C)Cc1nc2ccccc2n1Cc1cc(=O)[nH]c2c(F)c(F)ccc12 (racemic) [Example 220, 7,8-Difluoro-4-((2-(2-methylbutyl)-1H-benzo[d]imidazol-1-yl)methyl)quinolin-2(1H)-one] as the compound, how does the pEC50 read?
A: ≥ 5.30

Q: O=C(c1ccccn1)N(Cc1cc(=O)[nH]c2ccccc12)c1ccccc1 [Example 32, N-((2-Oxo-1,2-dihydroquinolin-4-yl)methyl)-N-phenylpicolinamide] was tested. Which pEC50 did it give?
A: < 5.30

Q: With Cc1ccc2c(CN(C(=O)c3ccco3)c3ccccc3)cc(=O)[nH]c2c1 [Example 20, N-((7-Methyl-2-oxo-1,2-dihydroquinolin-4-yl)methyl)-N-phenylfuran-2-carboxamide] as the compound, how does the pEC50 read?
A: ≥ 5.30

Q: With CN(C)c1ccccc1-c1nc2ccccc2n1Cc1cc(=O)[nH]c2c(F)c(F)ccc12 [Example 242, 4-((2-(2-(Dimethylamino)phenyl)-1H-benzo[d]imidazol-1-yl)methyl)-7,8-difluoroquinolin-2(1H)-one] as the compound, how does the pEC50 read?
A: < 5.30

Q: With CSc1nc2ccccc2n1Cc1cc(=O)[nH]c2c(F)c(F)ccc12 [Example 192, 7,8-Difluoro-4-((2-(methylthio)-1H-benzo[d]imidazol-1-yl)methyl)quinolin-2(1H)-one] as the compound, how does the pEC50 read?
A: ≥ 5.30

Q: How did the pEC50 turn out when CC(C)c1cn(Cc2cc(=O)[nH]c3c(F)c(F)ccc23)c(-c2ccccc2)n1 [Example 254, 7,8-Difluoro-4-((4-isopropyl-2-phenyl-1H-imidazol-1-yl)methyl)quinolin-2(1H)-one] was run?
A: ≥ 5.30

Q: How did the pEC50 turn out when CN(C)c1ccc(C(=O)N(Cc2cc(=O)[nH]c3c(F)cccc23)c2cccc(Cl)c2)cc1 [Example 76, N-(3-Chlorophenyl)-4-(dimethylamino)-N-((8-fluoro-2-oxo-1,2-dihydroquinolin-4-yl)methyl)benzamide] was run?
A: < 5.30

Q: With Cc1ccncc1C(=O)N(Cc1cc(=O)[nH]c2c(F)cccc12)c1cccc(Cl)c1 [Example 72, N-(3-Chlorophenyl)-N-((8-fluoro-2-oxo-1,2-dihydroquinolin-4-yl)methyl)-4-methylnicotinamide] as the compound, how does the pEC50 read?
A: < 5.30

Q: Cc1ncsc1C(=O)N(Cc1cc(=O)[nH]c2ccccc12)c1ccccc1 [Example 29, 4-Methyl-N-((2-oxo-1,2-dihydroquinolin-4-yl)methyl)-N-phenylthiazole-5-carboxamide] was tested. Which pEC50 did it give?
A: < 5.30

Q: Cc1ncsc1C(=O)N(Cc1cc(=O)[nH]c2c(F)c(F)ccc12)c1cccc(Cl)c1F [Example 96, N-(3-Chloro-2-fluorophenyl)-N-((7,8-fluoro-2-oxo-1,2-dihydroquinolin-4-yl)methyl)-4-methylthiazole-5-carboxamide] was tested. Which pEC50 did it give?
A: ≥ 5.30
